Results as given in patent US9187458B2, “Cyanoquinoline derivatives” (Tianjin Hemay Bio-Tech Co., LTD., priority 2010, dated 2015).

Key:
[1] = system: A549 cells; test: A549 Cell Growth Inhibition Test (MTT Assay); format: cell-based; conditions: Homo sapiens, 72 h incubation
Procedure: A549 Cell Growth Inhibition Test (MTT Assay)
1. Cell strains: […] (human lung caner cell strains);
Culture medium: 90% F12K+10% FBS;
(§1) 1. A plate (10 cm) of cells in logarithmic growth phase normally cultured was collected;
2. The culture solution was sucked out. Tthe plate was washed with 5 ml of PBS 1-2 times;
(§2) 3. PBS was sucked out. 2 ml of 0.25% pancreatin was added to infiltrate the cells for 1 min;
(§3) 4. The pancreatin was sucked out. The culture plate was placed in an incubator. Digestion was carried out for about 2 min at 37° C.;
(§4) 5. 4 ml of complete culture solution was added to the culture plate to stop the digestion. The cells were carefully scoured with micropipette (1 ml) to give a uniform cell suspension. The suspension was implanted into a 96-well cell culture plate by 2500 cells/100 μl per well. The culture plate was incubated overnight under 5% CO2 at 37° C. In day 2, 100 μl of culture solution comprising a compound was added in each well, and further incubated for 72 h under 5% CO2 at 37° C.
(§5) 6. The culture solution was sucked out;
(§6) 7. 100 μl of serum-free culture solution containing 0.5 mg/ml MTT was added in each well, and incubated for 3 h;
(§7) 8. The culture solution was carefully sucked out;
(§8) 9. 100 μl of DMSO was added in each well and vibrated to dissolve;
(§9) 10. OD values were determined at 490 nM.
(§10) 1. Calculation of Relative Inhibition Ratio The inhibition ratio of a compound on cell growth=(PC−n)/(PC−NC)×100%
(§11) IC50: Concentration of a compound where inhibition ratio was 50%. IC50 values were fitted with Origin7.5.

[2] = system: A431 cells; test: A431 Cell Growth Inhibition Test (MTT Assay); format: cell-based, human; conditions: Homo sapiens; for IC50: A-431, 68 h incubation; for inhibition at 1 µM: A-431, 68 h, compound 1 μM, 68 h incubation, read-out: Growth Inhibition Ratio (%)
Procedure: A431 Cell Growth Inhibition Test (MTT Assay)
1. Cell strains: A431 (human epithelial […] cell strains);
Culture medium: 45% DMEM, 45% F12+10% FBS;
as §1
(§12) 2. The culture solution was sucked out. The plate was washed with 5 ml of PBS 1-2 times;
3. PBS was sucked out, and 2 ml of 0.25% pancreatin was added to infiltrate the cells for 1 min;
4. The pancreatin was sucked out, and the culture plate was placed in an incubator. Digestion was carried out for about 15 min at 37° C.;
as §4, with “added in” for “added to”, “comprising the” for “comprising a”, “for 68” for “for 72”
as §5
7. 100 μl of serum-free culture solution containing 0.5 mg/ml MTT was added in each well, and incubated for 4 h;
as §7
9. 100 μl of DMSO was added into each well and vibrated to dissolve;
as §9, §10
IC50: concentration of a compound where inhibition ratio was 50%. IC50 values were fitted with Origin7.5.

[3] = system: NCI-H460 cells; test: NCI-H460 Cell Growth Inhibition Test (MTT Assay); format: cell-based; conditions: Homo sapiens, 72 h incubation
Procedure: NCI-H460 Cell Growth Inhibition Test (MTT Assay)
1. Cell strains: NCI-H460 (human large cell lung cancer cell strains);
as §1, §12, §2, §3, §4, §5, §6, §7, §8, §9, §10, §11

[4] = system: BT-474 cells; test: BT-474 Cell Growth Inhibition Test (SRB Assay); format: cell-based, human; conditions: Homo sapiens, 70 h incubation; for inhibition at 1 µM: BT-474, 70 h, compound 1 μM, read-out: Growth Inhibition Ratio (%)
Procedure: BT-474 Cell Growth Inhibition Test (SRB Assay)
1. Cell strains: BT-474 (human breast tumor cell strains);
2. SRB: available from Sigmaaldrich, goods number: S9012, lot number: 047K3751. SRB was reserved at the room temperature. 0.4% (w/v) of working solution was formulated with 1% of glacial acetic acid. The solution was reserved at the temperature of 4° C.; anti-tumor compounds; DMSO.
Culture medium (90% EMEM+10% FBS+0.1 mM NEAA, reserved at 4° C.);
(§13) 1. A plate (10 cm) of cells in logarithmic growth phase normally cultured was collected. The culture solution was sucked out. The plate was washed with 5 mL of PBS 1-2 times;
2. PBS was sucked out, and […] of 0.25% pancreatin was added to infiltrate the cells for 30 s;
3. The pancreatin was sucked out. The culture plate was pleaced in an incubator. Digestion was carried out for about 5 min at 37° C.;
4. 3 mL of complete culture solution was added to the culture plate to stop the digestion. The cells were carefully scoured with micropipette (1 ml) to give a uniform single cell suspension;
5. Cell suspension was counted. The suspension was diluted to 1×10^5/ml. The resulting suspension was developed uniformly on a plate. The plate was incubated under 5% CO2 at 37° C. overnight. In day 2, 80 μL of complete culture medium was added in each well and then 20 μL of culture solution comprising a compound was added. The mixture was incubated for 70 h under 5% CO2 at 37° C.
(§14) 6. The culture solution was sucked out. 100 uL of TCA fixed cells which were diluted to 10% were added to each well. The plate was kept in a refrigerator for 1 h at 4° C.
(§15) 7. TCA stationary liquid was sucked out. Each well was washed with 150 μL of ddH2O five times;
(§16) 8. After the stationary liquid was cleansed, the plate was dried in the air at the room temperature;
(§17) 9. 60 μL of SRB staining solution was added in each well. The well was stained for 15 min at the room temperature;
(§18) 10. The SRB staining solution was sucked out. Each well was washed with 150 μL of 1% glacial acetic acid five times;
(§19) 11. After the SRB staining solution was cleansed, the plate was dried in the air at the room temperature;
(§20) 12. 100 μL of 10 mM Tris was added in each well. The plate was vibrated to dissolve out SRB;
(§21) 13. OD values were determined at 570 nM.
as §10, §11

[5] = system: Sk-Br-3 cells; test: Sk-Br-3 Cell Growth Inhibition Test (SRB Assay); format: cell-based; conditions: Homo sapiens, 91 h incubation
Procedure: Sk-Br-3 Cell Growth Inhibition Test (SRB Assay)
1. Cell strains: Sk-Br-3 (human breast cancer cell strains);
2. SRB: available from Sigmaaldrich, goods number: S9012, lot number: 047K3751. SRB was reserved at the room temperature. 0.4% (w/v) of working solution was formulated with 1% of glacial acetic acid. The solution was reserved at 4° C.; anti-tumor compounds; DMSO
Culture medium: 90% DMEM+10% FBS;
as §13
2. PBS was sucked out. […] of 0.25% pancreatin was added to infiltrate the cells for 30 s;
3. The pancreatin was sucked out. The culture plate was placed in an incubator. Digestion was carried out for about 1.5-2 min at 37° C.;
4. 4 mL of complete culture solution was added to the culture plate to stop the digestion. The cells were carefully scoured with micropipette (1 ml) to give a uniform single cell suspension;
5. Cell suspension was counted. The suspension was diluted to 1×10^5/ml. The resulting suspension was developed uniformly on a plate by 10000 cells/100 μl per well. The culture plate was incubated overnight under 5% CO2 at 37° C. In day 2, 100 μl of culture solution comprising a compound was added in each well, and further incubated for 91 h under 5% CO2 at 37° C.
as §14, §15, §16, §17, §18, §19, §20, §21
To: OD values of the starting content of cells when the cells were developed on a plate;
PC: OD values of cells after normal growth in control wells without a compound;
Ti: OD values of cells after growth in test wells with a compound;
NC: Background OD values of blank well without a compound and cells
Therefore: Ratio of cells in test wells to normal wells (% of control cell growth)=(Ti−To)/(PC−To)×100%
Ratio GI50 was concentration of a compound at the point of 50%.
Therefore: Ratio of killed cells to inoculated cells (% of killed cells)=(Ti−To)/(To−NC)×100%
LC50 was concentration point of a compound when half of the starting inoculated concentration was reached.
Concentration of a compound at this point is defined as TGI (total growth inhibition).

[6] = system: NCI-N87 cells; test: NCI-N87 Cell Growth Inhibition Test (MTT Assay); format: cell-based; conditions: Homo sapiens, 72 h incubation
Procedure: NCI-N87 Cell Growth Inhibition Test (MTT Assay)
1. Cell strains: NCI-N87 (human gastric carcinoma cell strains);
as §1
2. The culture solution was sucked out. The plate was washed wtih 5 ml of PBS 1-2 times;
(§22) 3. PBS was sucked out. 1.5 ml of 0.25% pancreatin was added to infiltrate the cells for 1 min;
4. The pancreatin was sucked out. The culture plate was placed in an incubator. Digestion was carried out for about 12 min at 37° C.;
as §4, with “5. 4.5 ml of” for “5. 4 ml of”, “cell culture disc by 17000” for “cell culture plate by 2500”, “disc by 17000 cells/100 μl” for “plate by 2500 cells/100 μl”
as §5, §6, §7
(§23) 9. 100 μl of DMSO was added in each welland vibrated to dissolve;
as §9
1. Calculation of Rrelative Inhibition Ratio The inhibition ratio of a compound on cell growth=(PC−n)/(PC−NC)×100%
as §11

[7] = system: Fadu cells; test: Fadu Cell Growth Inhibition Test (MTT Assay); format: cell-based; conditions: Homo sapiens, 72 h incubation
Procedure: Fadu Cell Growth Inhibition Test (MTT Assay)
Cell strains: Fudu (human head and neck cancer cell strains);
Culture medium: 90% EMEM+10% FBS;
as §1, §12, §22
4. The pancreatin was sucked out. The culture plate was placed in an incubator. Digestion was carried out for about 5 min at 37° C.;
as §4, with “4.5” for “4”, “6000” for “2500”
as §5, §6, §7, §23, §9, §10, §11

CN(C)C/C=C/C(=O)Nc1cc2c(Nc3ccc(F)c(Cl)c3)c(C#N)cnc2cc1Oc1cccnc1 [Example 174, (E)-N-(4-(3-CHLORO-4-FLUOROPHENYLAMINO)-3-CYANO-7-(PYRIDIN-3-YL-OXY)QUINOLIN-6-YL)4-(DIMETHYLAMINO)-BUT-2-ENAMIDE]
IC50 [1]: 3700 nM
IC50 [2]: 950 nM
IC50 [3]: 3000 nM

C#Cc1cccc(Nc2c(C#N)cnc3cc(O[C@H]4CCOC4)c(NC(=O)/C=C/CN(C)CCO)cc23)c1 [Example 190, (S,E)-N-(3-CYANO-4-(3-ETHYNYLPHENYLAMINO)-7-(TETRAHYDROFURAN-3-YL-OXY)QUINOLIN-6-YL)-4-(N-METHYLETHANOLAMINO)-BUT-2-ENAMIDE]
inhibition at 1 µM [2]: 79%
IC50 [4]: 267 nM

C#Cc1cccc(Nc2c(C#N)cnc3cc(OC4CCOC4)c(NC(=O)/C=C/CN(C)C)cc23)c1 (mixture of isomers) [Example 177, (E/Z)-N-(3-CYANO-4-(3-ETHYNYLPHENYLAMINO)-7-(TETRAHYDROFURAN-3-YL-OXY)QUINOLIN-6-YL)-4-(DIMETHYLAMINO)-BUT-2-ENAMIDE]
inhibition at 1 µM [2]: 81%
inhibition at 1 µM [4]: 87%

CN(C)C/C=C/C(=O)Nc1cc2c(Nc3ccc(F)c(Cl)c3)c(C#N)cnc2cc1OC1CCOC1 (mixture of isomers) [Example 176, (E/Z)-N-(4-(3-CHLORO-4-FLUOROPHENYLAMINO)-3-CYANO-7-(TETRAHYDROFURAN-3-YL-OXY)QUINOLIN-6-YL)-4-(DIMETHYLAMINO)-BUT-2-ENAMIDE]
inhibition at 1 µM [2]: 79%
inhibition at 1 µM [4]: 89%

Cc1ccccc1COc1ccc(Nc2c(C#N)cnc3cc(O[C@H]4CCOC4)c(NC(=O)/C=C/CN(C)C)cc23)cc1Cl [Example 166, (S,E)-N-(4-(4-(2-METHYLBENZYLOXY)-3-CHLOROPHENYLAMINO)-3-CYANO-7-(TETRAHYDROFURAN-3-YL-OXY)QUINOLIN-6-YL)-4-(DIMETHYLAMINO)-BUT-2-ENAMIDE]
inhibition at 1 µM [2]: 69%
inhibition at 1 µM [4]: 69%

CN(C)C/C=C/C(=O)Nc1cc2c(Nc3ccc(OCc4cccc(F)c4)c(Cl)c3)c(C#N)cnc2cc1OC1CCOC1 (mixture of isomers) [Example 180, (E/Z)-N-(4-(4-(3-FLUOROBENZYLOXY)-3-CHLOROPHENYLAMINO)-3-CYANO-7-(TETRAHYDROFURAN-3-YL-OXY)QUINOLIN-6-YL)-4-(DIMETHYLAMINO)-BUT-2-ENAMIDE]
inhibition at 1 µM [2]: 73%
inhibition at 1 µM [4]: 78%

N#Cc1cnc2cc(O[C@H]3CCOC3)c(NC(=O)/C=C/CNCCCCCCO)cc2c1Nc1ccc(OCc2ccccn2)c(Cl)c1 [Example 154, (S,E)-N-(4-(3-CHLORO-4-(PYRIDIN-2-YL-METHOXY)PHENYLAMINO)-3-CYANO-7-(TETRAHYDROFURAN-3-YL-OXY)QUINOLIN-6-YL)-4-(6-HYDROXYHEXYLAMINO)-BUT-2-ENAMIDE]
GI50 [5]: 38 nM
IC50 [2]: 162 nM
IC50 [6]: 41 nM
IC50 [4]: 12 nM
IC50 [7]: 324 nM
